Experiments:
Assay type in all cases: binding
HLA-A*02:01 = HLA-A*02:01 (Homo sapiens, UniProt P04439, D140Y/D185E/D98H/E176V/E277Q/G131W/G231S/I119V/I121R/I166T/I218V/L300P/L318F/N151K/N90K/P208A/P217A/Q86G/Q94H/R138H/R169H/T345S); conditions: percent relative the binding of positive control peptide […]; plate-bound monomer 0.5 µg/ml; duplicated experiments; positive binder >40%
HLA-A*24:02 = HLA-A*24:02 (Homo sapiens, UniProt P04439, D101N/D140Y/D185E/E176V/E190D/F33S/G103R/G107R/I119L/I121M/I306V/K335N/L105A/L180Q/L300P/N151K/N90K/Q86E/Q94H/R106L/R138H/R89G/T104I/T345S/V100E/W191G/Y123F); conditions: percent relative the binding of positive control peptide […]; duplicated experiments; positive binder >40%
HLA-A*30:01 = HLA-A*30:01 (Homo sapiens, UniProt P04439, D140H/D185E/E176W/F33S/G80R/H175R/K168Q/R138E/R41S); conditions: percent relative the binding of positive control peptide […]; duplicated experiments; positive binder >40%
HLA-A*30:02 = HLA-A*30:02 (Homo sapiens, UniProt P04439, D101N/D140H/D185E/E176R/F33S/G80R/H175R/K168Q/Q94H/R138E/R41S/V100E); conditions: percent relative the binding of positive control peptide […]; duplicated experiments; positive binder >40%
HLA-A*68:01 = HLA-A*68:01 (Homo sapiens, UniProt P04439, A269V/D185E/E176V/E277Q/E87N/F33Y/G231S/I121M/I166T/I218V/L180W/L300P/L318F/N151K/P208A/P217A/Q86R/R169H/T345S); conditions: percent relative the binding of positive control peptide […]; duplicated experiments; positive binder >40%
HLA-B*07:02 = HLA-B*07:02 (Homo sapiens, UniProt P01889); conditions: percent relative the binding of positive control peptide […]; duplicated experiments; positive binder >40%
HLA-B*58:01 = HLA-B*58:01 (Homo sapiens, UniProt P01889, A329T/C349S/D201E/D98Y/E176V/E187L/E204Q/E69T/G107R/I218V/I90N/K202T/L105A/L119I/N104I/N87E/Q89R/Q94S/R106L/R155S/R180L/R86G/S101N/S121R/S35A/S48A/T118I/V127L/V306I/V36M/Y140S/Y91M); conditions: percent relative the binding of positive control peptide […]; duplicated experiments; positive binder >40%
HLA-C*07:01 = HLA-C*07:01 (Homo sapiens, UniProt P10321, K90N/S123Y); conditions: percent relative the binding of positive control peptide […]; duplicated experiments; positive binder >40%

| Substance | Bind A*02:01 (HLA-A*02:01) [%] | Bind A*24:02 (HLA-A*24:02) [%] | Bind A*30:01 (HLA-A*30:01) [%] | Bind A*30:02 (HLA-A*30:02) [%] | Bind A*68:01 (HLA-A*68:01) [%] | Bind B*07:02 (HLA-B*07:02) [%] | Bind B*58:01 (HLA-B*58:01) [%] | Bind C*07:01 (HLA-C*07:01) [%] |
| --- | --- | --- | --- | --- | --- | --- | --- | --- |
| GSSAMILAA | 66 | 0 | 0 | 0 | 4 | 5 | 29 | 8 |
| QQFIYAGSL | 42 | 0 | 0 | 80 | 0 | 0 | 8 | 27 |
| MW GPSSDPA | 6 | 24 | 0 | 74 | 7 | 3 | 0 | 0 |
| ALLDPSQGM | 60 | 0 | 5 | 86 | 0 | 17 | 1 | 22 |
| IPKLVANNT | 0 | 0 | 5 | 0 | 0 | 41 | 16 | 0 |
| ILAAYHPQQ | 57 | 0 | 1 | 45 | 0 | 1 | 30 | 1 |
| VRSSNLKFQ | 5 | 23 | 0 | 0 | 14 | 10 | 7 | 61 |
| NAAGGHNAV | 39 | 0 | 27 | 2 | 28 | 16 | 43 | 5 |
| DGLRAQDDY | 0 | 0 | 2 | 58 | 4 | 1 | 0 | 0 |
| SAAIGLSMA | 67 | 0 | 0 | 0 | 0 | 31 | 5 | 0 |
| NAMKGDLQS | 14 | 45 | 6 | 0 | 15 | 6 | 0 | 20 |
| NNTRLW VYC | 0 | 3 | 19 | 89 | 4 | 4 | 11 | 20 |
| GGANIPAEF | 4 | 0 | 0 | 70 | 0 | 0 | 57 | 5 |
| GGYKAADMW | 0 | 34 | 0 | 0 | 11 | 0 | 61 | 0 |
| TSELPQW LS | 12 | 52 | 0 | 0 | 0 | 14 | 0 | 0 |
| AGGYKAADM | 0 | 0 | 0 | 85 | 0 | 0 | 0 | 0 |
| SW EYW GAQL | 31 | 79 | 0 | 0 | 0 | 1 | 0 | 0 |

| Substance | Bind A*02:01 (HLA-A*02:01) [%] | Bind A*24:02 (HLA-A*24:02) [%] | Bind A*30:01 (HLA-A*30:01) [%] | Bind A*30:02 (HLA-A*30:02) [%] | Bind A*68:01 (HLA-A*68:01) [%] | Bind B*07:02 (HLA-B*07:02) [%] | Bind B*58:01 (HLA-B*58:01) [%] | Bind C*07:01 (HLA-C*07:01) [%] |
| --- | --- | --- | --- | --- | --- | --- | --- | --- |
| NAVFNFPPN | 24 | 14 | 0 | 70 | 27 | 5 | 28 | 2 |
| RLWVYCGNG | 45 | 0 | 0 | 65 | 12 | 2 | 8 | 9 |
| MILAAYHPQ | 56 | 0 | 0 | 82 | 0 | 0 | 11 | 4 |
| DPSQGMGPS | 30 | 58 | 21 | 29 | 0 | 0 | 12 | 19 |
| QQIPKLVAN | 36 | 0 | 10 | 60 | 2 | 2 | 16 | 15 |
| GSAAIGLSM | 31 | 7 | 0 | 9 | 5 | 38 | 38 | 66 |
| QSGLSIVMP | 30 | 0 | 34 | 0 | 0 | 0 | 0 | 43 |
| KGDLQSSLG | 10 | 4 | 20 | 13 | 40 | 6 | 0 | 25 |
| PVGGQSSFY | 0 | 0 | 0 | 82 | 0 | 0 | 0 | 0 |
| SPACGKAGC | 16 | 0 | 0 | 0 | 0 | 77 | 0 | 0 |
| CGNGTPNEL | 20 | 2 | 0 | 41 | 0 | 0 | 0 | 28 |
| FLENFVRSS | 77 | 5 | 0 | 0 | 7 | 0 | 0 | 5 |
| VKPTGSAAI | 0 | 0 | 0 | 0 | 0 | 43 | 0 | 0 |
| AEFLENFVR | 12 | 1 | 0 | 0 | 63 | 0 | 10 | 13 |
| SALLDPSQG | 0 | 0 | 12 | 62 | 0 | 3 | 8 | 9 |
| VQFQSGGNN | 0 | 0 | 0 | 51 | 0 | 0 | 0 | 0 |
